Experimental data from patent US20090048283A1, “Salt of an androgen receptor modulator” (priority 2007, published 2009).

Tests used:
[1] = solid-state form interconversion (variable temperature X-ray, drying); format: physicochemical; conditions: ambient conditions or drying
Description: FIG. 5 is an overlay of variable temperature X-ray powder diffraction patterns showing the appearance of the non-isolatable anhydrous Form C of the 2:1 compound I:biphthalate salt.
FIG. 6 is an overlay of X-ray powder diffraction patterns comparing Form B, the dihydrate 2:1 compound I:biphthalate salt, with Form D, the tetrahydrate 2:1 compound I:biphthalate salt. When the wet cake of the 2:1 compound I:biphthalate salt, was air dried at room temperature, Form D was obtained at both T=5 days and T=8-days. The various methods of drying possible, in addition to the size of the sample to be dried, can vary the time needed for drying. The dryness was determined by a stable TG curve showing about a 6% weight loss. Here, the method was to dry in open air, and at both time points (T=5 and T=8 days), the weight loss by TGA was equal to about 6%.
In another embodiment of the invention, anhydrous 2:1 compound I:biphthalate material was non-isolatable at ambient condition, but the hygroscopicity study indicated the presence of one or more hydrated states from 15% to 95% RH. The weight percent of water was 3.4% at 15% RH with a gradual increase to 6.1% at 95%. […] Form D is suspected to be a tetrahydrate biphthalate salt based on its TG data in addition to the hygroscopicity data of Form B. Upon further drying (15 days), the TG and XRD data conform to that of Form B, the dihydrate 2:1 compound I:biphthalate salt.

[2] = hygroscopicity by symmetric vapor sorption analyzer; format: physicochemical; conditions: 25° C.
Method: A large quantity of Form A (wet cake of N-(3H-imidazo[4,5-B]pyridin-2-ylmethyl)-2-fluoro-4-methyl-3-oxo-4-aza-5-alpha-androst-1-en-17-beta-carboxamide) was generated by dissolving the crystalline free base (Form E) in pH 3—potassium biphthalate and sulfuric acid mixture—for 10 days at RT. The slurry was filtered and washed with copious amount of D.I. water to wash off residual ions. The wet cake (Form A) was analyzed by x-ray and was then vacuum dried at 37° C. for 3 days. Upon drying, a change in x-ray pattern was observed. The dry cake (Form B) was then analyzed by differential scanning calorimetry (DSC) and thermogravimetry (TG). The TG analysis was performed under a nitrogen flow at a heating rate of 10° C./min, and the DSC was performed under nitrogen flow at a heating rate of 10° C./min in a covered pan. The hygroscopicity of Form B was determined using a symmetric vapor sorption analyzer. The experiment includes an initial drying step at 60° C., followed by measurements of water sorption at 25° C. for percent RH values from 5% to 95% in 10% intervals. The data are reported as percent weight gain as a function of percent RH. Form B was also analyzed for weight percent by liquid chromatography (LCWP) by high performance liquid chromatography (HPLC).

Question: Which “solid-state form stability / conversion” value [1] does the source give for `CN1C(=O)C(F)=C[C@]2(C)C3CC[C@]4(C)[C@@H](C(=O)NCc5nc6cccnc6[nH]5)CC[C@H]4C3CC[C@@H]12` (some centres unmarked) [Form D] here?
Answer: The value was “converts to Form B upon further drying”.

Question: Which “weight percent of water” value ([2]; at 15% RH) does the source give for `CN1C(=O)C(F)=C[C@]2(C)C3CC[C@]4(C)[C@@H](C(=O)NCc5nc6cccnc6[nH]5)CC[C@H]4C3CC[C@@H]12` (some centres unmarked) [Form B] here?
Answer: Its value is 3.4%.

Question: And the “weight percent of water” value ([2]; at 95% RH)?
Answer: The value was 6.1%.

Question: What about the “solid-state form stability / conversion” value [1] of the same molecule?
Answer: The value was “the most stable form”.

Question: With `CN1C(=O)C(F)=C[C@]2(C)C3CC[C@]4(C)[C@@H](C(=O)NCc5nc6cccnc6[nH]5)CC[C@H]4C3CC[C@@H]12` (some centres unmarked) [Form C] as the molecule, how does the “solid-state form stability / conversion” value [1] read?
Answer: Its value is “readily hydrates to Form B in ambient conditions”.
